Our source for the IC50 and CC50 values is ChEMBL document CHEMBL4229526, “Quinoxaline derivatives as potential antitrypanosomal and antileishmanial agents” (Bioorg Med Chem, 2018).

Series [1] concerns H9c2. As to the kind of experiment: Cytotoxicity against rat H9c2 cells infected with Trypanosoma cruzi Tulahuen amastigote forms assessed as reduction in cell number after 72 hrs by DRAQ5 DNA dye based confocal microscopic analysis. The conditions noted are these: H9c2, 72 h.
For series [2], the system named is Leishmania donovani. Kind of series: Antileishmanial activity against Leishmania donovani MHOM/SD/62/1S-CL2D LdBOB amastigotes harboring eGFP infected in human THP1 cells assessed as reduction in number of amastigotes per cell after 96 hrs by DAPI staining based microscopic analysis. The conditions noted are these: THP-1, 96 h. Type of series: functional, organism-based.

Series [3] concerns Trypanosoma brucei. Kind of series: Antitrypanosomal activity against Trypanosoma brucei Lister 427 bloodstream forms after 48 hrs by resazurin dye based fluorescence assay. It counts as functional, organism-based. The conditions noted are these: Lister 427, 48 h. Background: Resazurin is reduced to fluorescent resorufin, in cell work by metabolically active cells.
The test system of series [4] is Trypanosoma cruzi. Kind of series: Antitrypanosomal activity against Trypanosoma cruzi Tulahuen trypomastigote forms infected in monkey LLC-MK2 cells after 24 hrs by CellTiter-Glo luminescent cell viability assay. Type of series: functional, organism-based. The following applies: LLC-MK2, 24 h.
In series [5] the test system is Trypanosoma cruzi. As to the kind of experiment: Antitrypanosomal activity against Trypanosoma cruzi Tulahuen amastigote forms infected in rat H9c2 cells assessed as reduction in infected cells after 72 hrs by DRAQ5 DNA dye based confocal microscopic analysis. It counts as functional, organism-based. The following applies: H9c2, 72 h.
For series [6], the system named is THP-1. Kind of series: Cytotoxicity against human THP1 cells infected with Leishmania donovani MHOM/SD/62/1S-CL2D LdBOB amastigotes harboring eGFP assessed as reduction in cell number after 96 hrs by DAPI staining based microscopic analysis. The conditions noted are these: THP-1, 96 h.
Series [7] has as its system Leishmania donovani. As to the kind of experiment: Antileishmanial activity against Leishmania donovani MHOM/SD/62/1S-CL2D LdBOB amastigotes harboring eGFP infected in human THP1 cells assessed as reduction in infected cells after 96 hrs by DAPI staining based microscopic analysis. The conditions noted are these: THP-1, 96 h. It counts as functional, organism-based.
Series [8] in a line: Cytotoxicity against human HepG2 cells after 48 hrs by CellTiter-Glo cell viability assay. Type of series: cell-based.
Series [9] has as its system Trypanosoma cruzi. As to the kind of experiment: Antitrypanosomal activity against Trypanosoma cruzi Tulahuen amastigote forms infected in rat H9c2 cells assessed as reduction in amastigote number per cell after 72 hrs by DRAQ5 DNA dye based confocal microscopic analysis. Type of series: functional, organism-based. The conditions noted are these: H9c2, 72 h.
For series [10], the system named is Leishmania donovani. As to the kind of experiment: Antileishmanial activity against Leishmania donovani MHOM/SD/62/1S-CL2D LdBOB axenic amastigotes harboring eGFP after 72 hrs by resazurin dye based fluorescence assay. Type of series: functional, organism-based.

SMILES strings stand for the structures. Where only a bound is given, the exact number is not on record here.

On to `COc1ccc2nc(NC3CCCCC3)c(S(C)(=O)=O)nc2c1`, for which the half-maximal inhibitory concentration (IC50) (as a rule, the point on the concentration scale where inhibition reaches its midpoint) in series [1] was 6.31 µM; in series [2] it was 6.31 µM; in series [3], 15.8 µM; in [4] it was 3.64 µM; in series [5] it was 15.8 µM; in series [6] it was 10 µM. Moreover, the 50% inhibitory concentration (IC50) in series [7] was 7.94 µM; in series [9] it was 12.6 µM; in series [10], 10 µM. Half-maximal cytotoxicity in series [8] (CC50 at 48 h) was put at 12.6 µM.
For `CCCCNc1nc2cc(OC)ccc2nc1S(C)(=O)=O`, the 50% inhibitory concentration (IC50) in [1] was 31.6 µM; in series [2], more than 50 µM; in [3], 25.1 µM; in series [4], 41.8 µM; in [5], 39.8 µM; in series [6], more than 50 µM. Moreover, the IC50 in [7] is more than 50 µM; in [9] it was 25.1 µM; in [10] it was more than 50 µM. In series [8], the cytotoxic concentration (CC50) (usually the concentration that lowers cell viability or growth by half) at 48 h is more than 100 µM.
Consider `COc1ccc2nc(S(C)(=O)=O)c(NCCO)nc2c1`, for which the half-maximal inhibitory concentration (IC50) in series [1] is more than 50 µM; in [2] it was more than 50 µM; in series [3], 39.8 µM; in series [4], 0.77 µM; in [5], more than 50 µM; in series [6] it was more than 50 µM. For the same molecule, the IC50 in series [7], in series [9] and in series [10] was more than 50 µM throughout. Besides, the cytotoxic concentration (CC50) at 48 h in series [8] is more than 100 µM.
As to `COc1ccc2nc(S(C)(=O)=O)c(NC3CCCCC3)nc2c1`, the IC50 in series [1] was 19.9 µM; in series [2], more than 50 µM; in series [3] it was 25.1 µM; in [4], 42.5 µM; in series [5] it was 19.9 µM; in [6] it was 31.6 µM. Further, the IC50 is more than 50 µM in series [7], 15.8 µM in series [9] and more than 50 µM in [10]. In [8], this molecule returned a CC50 at 48 h of 79.4 µM.
Consider `COc1ccc2nc(S(C)(=O)=O)c(NCC(C)C)nc2c1`, for which the half-maximal inhibitory concentration (IC50) in series [1] was 31.6 µM; in [2], more than 50 µM; in series [3], 31.6 µM; in series [4], 44 µM; in series [5], 31.6 µM; in series [6], more than 50 µM. The results for the IC50 in series [7], in [9] and in series [10] were more than 50 µM, 31.6 µM and more than 50 µM, respectively. The CC50 at 48 h in [8] worked out at 79.4 µM.
`COc1ccc2nc(S(C)(=O)=O)c(NCCC(C)C)nc2c1`: the IC50 in series [1] is 31.6 µM; in [2], more than 50 µM; in series [3] it was 25.1 µM; in [4], more than 50 µM; in series [5] it was 19.9 µM; in series [6] it was 39.8 µM. Further, the IC50 in [7] is more than 50 µM; in series [9] it was 15.8 µM; in series [10], more than 50 µM. The same molecule registered a CC50 at 48 h in series [8] of 50.1 µM.
On to `CCCCNc1nc2cc(Br)ccc2nc1S(C)(=O)=O`, for which the IC50 was found to be 5.01 µM in series [1]; 6.31 µM in series [2]; 6.31 µM in series [3]; 0.98 µM in series [4]; 7.94 µM in series [5]; 7.94 µM in series [6]. The IC50 in series [7] was 10 µM; in [9] it was 5.01 µM; in series [10] it was 5.01 µM. Further, in series [8], the CC50 at 48 h is 7.94 µM.
As to `COc1ccc2nc(NCC(C)C)c(S(C)(=O)=O)nc2c1`, the IC50 in [1] amounted to 10 µM; in series [2] it was 12.6 µM; in series [3], 25.1 µM; in series [4], 5.44 µM; in series [5] it was 19.9 µM; in [6], 7.94 µM. The half-maximal inhibitory concentration (IC50) is 19.9 µM in [7], 15.8 µM in series [9] and 12.6 µM in series [10]. Besides, the midpoint of cytotoxicity in series [8], the CC50 at 48 h, lay at 12.6 µM.
For `CCCCNc1nc2cc(Cl)ccc2nc1S(C)(=O)=O`, the half-maximal inhibitory concentration (IC50) in series [1] turned out to be 5.01 µM; in series [2] it was 7.94 µM; in series [3], 6.31 µM; in series [4] it was 0.96 µM; in [5] it was 10 µM; in series [6] it was 5.01 µM. Also, the IC50 in series [7] worked out at 7.94 µM; in [9], 7.94 µM; in series [10] it was 3.16 µM. Besides, it took 6.31 µM to reach half-maximal cytotoxicity in series [8] (CC50 at 48 h).
As for `CS(=O)(=O)c1nc2ccc(Cl)cc2nc1NC1CCCCC1`, the IC50 stood at 3.98 µM in series [1]; 12.6 µM in series [2]; 2.51 µM in series [3]; 0.4 µM in [4]; 7.94 µM in series [5]; 6.31 µM in [6]. The concentration for half-maximal inhibition (IC50) in series [7] came to 10 µM; in series [9], 5.01 µM; in [10], 3.98 µM. This molecule registered a 50% cytotoxic concentration (CC50) at 48 h in series [8] of 5.01 µM.
Take `COc1ccc2nc(NC3CCCCC3)c([S+](C)[O-])nc2c1` (stereo unspecified): the half-maximal inhibitory concentration (IC50) in [1] was determined as 5.01 µM; in series [2], 6.31 µM; in [3], 19.9 µM; in series [4], 7.74 µM; in series [5], 12.6 µM; in series [6] it was 10 µM. Moreover, the IC50 stood at 7.94 µM in series [7], 10 µM in [9] and 7.94 µM in series [10]. The midpoint of cytotoxicity in series [8], the CC50 at 48 h, lay at 12.6 µM.
With `C[S+]([O-])c1nc2ccc(Cl)cc2nc1NC1CCCCC1` (stereo unspecified), the IC50 was 3.16 µM in series [1]; 31.6 µM in series [2]; 6.31 µM in [3]; 0.74 µM in [4]; 5.01 µM in series [5]; 31.6 µM in series [6]. The IC50 worked out at 31.6 µM in [7], 3.98 µM in series [9] and 10 µM in series [10]. Also, in series [8], the midpoint of cytotoxicity, the CC50 at 48 h, lay at 15.8 µM.
As to `C[C@@H]1[C@H](O)[C@@H](C)/C=C/C=C/C=C/C=C/C=C/C=C/C=C/[C@H](O[C@@H]2O[C@H](C)[C@@H](O)[C@H](N)[C@@H]2O)C[C@@H]2O[C@](O)(C[C@@H](O)C[C@@H](O)[C@H](O)CC[C@@H](O)C[C@@H](O)CC(=O)O[C@H]1C)C[C@H](O)[C@H]2C(=O)O` [AMPHOTERICIN B], the IC50 came to 0.63 µM in series [2], 10 µM in series [6], 0.63 µM in series [7] and 1.58 µM in [10].
As to `O=C(Cn1ccnc1[N+](=O)[O-])NCc1ccccc1` [BENZNIDAZOLE], the IC50 was more than 50 µM in series [1]; 3.24 µM in series [3]; 23 µM in series [4]; 5.3 µM in series [5]; 1.26 µM in series [9].
Regarding `NCCC[C@](N)(C(=O)O)C(F)F` [EFLORNITHINE, (S)-], inhibition in series [3] was half-maximal at 32.4 µM (IC50).
With `CCCCCCCCCCCCCCCCOP(=O)([O-])OCC[N+](C)(C)C` [MILTEFOSINE], the 50% inhibitory concentration (IC50) in series [2] is 3.98 µM; in [6], 15.8 µM; in [7] it was 5.01 µM; in [10], 7.94 µM.
With `CC1CS(=O)(=O)CCN1/N=C/c1ccc([N+](=O)[O-])o1` (stereo unspecified) [NIFURTIMOX], the concentration for half-maximal inhibition (IC50) is more than 50 µM in series [1]; 7.58 µM in [3]; 2.97 µM in [4]; 5.9 µM in series [5]; 0.4 µM in series [9].
As to `N=C(N)c1ccc(OCCCCCOc2ccc(C(=N)N)cc2)cc1` [PENTAMIDINE], the concentration for half-maximal inhibition (IC50) in series [3] is 0.01 µM.
Same read-out and setting: the result for `Cc1ccc(C(=O)Nc2ccc(S(=O)(=O)O)c3cc(S(=O)(=O)O)cc(S(=O)(=O)O)c23)cc1NC(=O)c1cccc(NC(=O)Nc2cccc(C(=O)Nc3cc(C(=O)Nc4ccc(S(=O)(=O)O)c5cc(S(=O)(=O)O)cc(S(=O)(=O)O)c45)ccc3C)c2)c1` [SURAMIN] reads 0.18 µM.
